Assay results taken from patent publication US20250188040A1, “PHARMACEUTICAL COMPOSITIONS COMPRISING WRN HELICASE INHIBITORS” (Vividion Therapeutics, Inc., priority 2022, published 2025).
Read-outs that look alike come from different tables or passages of the source.

Key:
[1] = target: hWRN(519-1227)_C-H3CV-GFP-10His (Homo sapiens, UniProt Q14191); assay: Helicase Assay for WRN Inhibition (ATP-dependent, fluorescence based)
HCT 116 cells = assay: Cell growth assay (CellTiter-Glo 2.0), HCT 116 MSI-H cell line; details: Homo sapiens, HCT-116, 120 h, read-out: Cell Growth Inhibition GI50 HCT-116
WRN C727 [2] = target: T1, WRN C727 (Homo sapiens, UniProt Q14191); assay: Target engagement, in situ (cell), OCI-AML2; assay type: cell-based; details: OCI-AML2 cells, read-out: OCI-AML2 WRN C727 TE50 in situ (cell)
T1 construct: endogenous in cells; host or cells: OCI-AML2
Description: Cells or cell lysates were treated with a dose response of compound followed by probe treatment, which labels solvent exposed cysteines. Proteins were enzymatically digested with trypsin and probe-labelled peptides were enriched with streptavidin. Isolated peptides were then separated using reversed-phase liquid chromatography on a C18 column (Dionex Ultimated 3000 nano-LC, Thermo). Peptides were analyzed by parallel reaction monitoring mass spectrometry (Exploris 120, Thermo).
Target engagement (%) is calculated relative to DMSO treated control samples.

SW480 cells = assay: Cell growth assay (CellTiter-Glo 2.0), SW480 MSS cell line; details: Homo sapiens, SW480, 120 h, read-out: Cell Growth Inhibition GI50 SW480
WRN C727 [3] = target: T1, WRN C727; assay: Target engagement, in vitro (lysate), OCI-AML2; assay type: binding; details: read-out: OCI-AML2 WRN C727 TE50 in vitro (lysate)
How it was run: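 Percent engagement of WRN C727 is expressed against DMSO-treated samples, measured by PRM mass spectrometry of streptavidin-enriched, probe-tagged tryptic peptides. Compound dose responses preceded probe labelling of solvent-exposed cysteines, in either living OCI-AML2 cells or their lysates.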

[4] = WRN Helicase IC50, 30 min preincubation with ATP, 30 min reaction

Sequence of hWRN(519-1227)_C-H3CV-GFP-10His (Q14191 519-1227): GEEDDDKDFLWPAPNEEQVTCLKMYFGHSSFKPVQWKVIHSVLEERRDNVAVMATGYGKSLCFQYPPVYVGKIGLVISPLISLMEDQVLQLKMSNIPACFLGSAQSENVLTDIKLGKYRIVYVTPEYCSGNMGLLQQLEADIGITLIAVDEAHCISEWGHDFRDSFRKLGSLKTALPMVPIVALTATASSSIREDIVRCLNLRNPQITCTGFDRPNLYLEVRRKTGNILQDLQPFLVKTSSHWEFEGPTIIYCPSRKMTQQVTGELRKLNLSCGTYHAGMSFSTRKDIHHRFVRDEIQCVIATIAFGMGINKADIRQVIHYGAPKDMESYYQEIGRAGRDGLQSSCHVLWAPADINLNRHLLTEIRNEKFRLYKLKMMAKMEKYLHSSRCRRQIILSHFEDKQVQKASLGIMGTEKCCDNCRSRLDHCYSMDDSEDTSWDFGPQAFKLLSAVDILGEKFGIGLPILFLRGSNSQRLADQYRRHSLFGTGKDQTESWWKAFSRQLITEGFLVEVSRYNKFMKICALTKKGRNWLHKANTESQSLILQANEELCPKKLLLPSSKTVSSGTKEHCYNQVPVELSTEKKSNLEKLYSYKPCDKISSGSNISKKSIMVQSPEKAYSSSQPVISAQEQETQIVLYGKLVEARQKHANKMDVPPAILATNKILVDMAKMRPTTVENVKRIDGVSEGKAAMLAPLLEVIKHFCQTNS
T1 sequence (Q14191 whole entry): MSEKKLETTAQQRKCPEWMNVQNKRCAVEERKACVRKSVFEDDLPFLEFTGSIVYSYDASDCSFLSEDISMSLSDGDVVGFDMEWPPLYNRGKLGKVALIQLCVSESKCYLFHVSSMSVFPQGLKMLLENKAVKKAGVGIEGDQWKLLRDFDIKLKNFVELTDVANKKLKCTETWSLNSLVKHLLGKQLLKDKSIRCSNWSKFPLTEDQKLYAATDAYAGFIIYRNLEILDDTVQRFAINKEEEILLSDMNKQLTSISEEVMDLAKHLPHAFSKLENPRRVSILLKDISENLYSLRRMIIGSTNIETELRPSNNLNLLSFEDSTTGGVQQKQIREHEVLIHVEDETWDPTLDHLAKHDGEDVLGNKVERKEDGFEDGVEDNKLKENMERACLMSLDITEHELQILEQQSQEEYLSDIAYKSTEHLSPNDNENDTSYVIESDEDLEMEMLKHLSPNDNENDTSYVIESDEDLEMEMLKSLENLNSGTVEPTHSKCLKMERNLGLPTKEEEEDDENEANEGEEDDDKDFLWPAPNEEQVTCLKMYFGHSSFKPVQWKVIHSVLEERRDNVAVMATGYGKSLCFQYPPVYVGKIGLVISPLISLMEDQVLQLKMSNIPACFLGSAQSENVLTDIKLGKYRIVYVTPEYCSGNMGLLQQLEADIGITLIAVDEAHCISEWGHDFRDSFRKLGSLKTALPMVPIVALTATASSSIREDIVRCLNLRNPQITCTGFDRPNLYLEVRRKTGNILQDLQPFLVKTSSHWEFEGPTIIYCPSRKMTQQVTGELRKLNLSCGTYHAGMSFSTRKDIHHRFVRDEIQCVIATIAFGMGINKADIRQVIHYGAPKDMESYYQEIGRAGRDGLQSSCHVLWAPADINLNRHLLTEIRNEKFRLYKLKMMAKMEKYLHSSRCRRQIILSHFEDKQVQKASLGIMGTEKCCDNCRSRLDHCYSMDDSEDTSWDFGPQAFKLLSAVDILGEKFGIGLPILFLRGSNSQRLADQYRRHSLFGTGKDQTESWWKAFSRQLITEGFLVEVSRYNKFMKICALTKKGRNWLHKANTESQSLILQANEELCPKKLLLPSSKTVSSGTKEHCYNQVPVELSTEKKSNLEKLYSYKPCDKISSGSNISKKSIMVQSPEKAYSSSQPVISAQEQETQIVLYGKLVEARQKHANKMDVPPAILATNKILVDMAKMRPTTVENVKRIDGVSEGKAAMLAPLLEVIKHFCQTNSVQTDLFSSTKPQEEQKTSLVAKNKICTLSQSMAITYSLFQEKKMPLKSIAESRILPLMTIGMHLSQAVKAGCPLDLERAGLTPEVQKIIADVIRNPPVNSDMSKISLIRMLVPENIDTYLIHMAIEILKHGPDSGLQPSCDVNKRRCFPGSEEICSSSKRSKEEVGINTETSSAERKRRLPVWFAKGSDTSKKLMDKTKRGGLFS

SMILES | IC50 [1, 4] | GI50 (HCT 116 cells) | IC50 (WRN C727 [2]) | GI50 (SW480 cells) | IC50 (WRN C727 [3]) | IC50 [1]
COCC(/C=C/S(C)(=O)=O)NC(=O)c1cnc(C(F)(F)C2CC2)nc1Oc1ccccc1 (stereo in doubt) [Example 226, (S,E)-2-(cyclopropyldifluoromethyl)-N-(1-methoxy-4-(methylsulfonyl)but-3-en-2-yl)-4-phenoxypyrimidine-5-carboxamide] | 92.9 nM | 23 nM | 16 nM | 27900 nM | 116 nM | –
CCc1ncc(C(=O)NC/C=C/S(C)(=O)=O)c(Oc2ccccc2)n1 [Example 12, (E)-2-ethyl-N-(3-(methylsulfonyl)allyl)-4-phenoxypyrimidine-5-carboxamide] | 14000 nM | 8900 nM | 50000 nM | > 10000 nM | > 100000 nM | –
CC(C)c1ncc(C(=O)NC/C=C/S(C)(=O)=O)c(Oc2ccccc2)n1 [Example 14, (E)-2-isopropyl-N-(3-(methylsulfonyl)allyl)-4-phenoxypyrimidine-5-carboxamide] | 10000 nM | 5400 nM | 2090 nM | > 10000 nM | 20000 nM | –
CC(C)(C)c1ncc(C(=O)NC/C=C/S(C)(=O)=O)c(Oc2ccccc2)n1 [Example 56, (E)-2-(tert-butyl)-N-(3-(methylsulfonyl)allyl)-4-phenoxypyrimidine-5-carboxamide] | 842 nM | 378 nM | 430 nM | 10600 nM | 4900 nM | –
C[C@@H](/C=C/S(C)(=O)=O)NC(=O)c1cnc(-c2ccccc2)nc1Oc1ccccc1 [Example 80, (S,E)-N-(4-(methylsulfonyl)but-3-en-2-yl)-4-phenoxy-2-phenylpyrimidine-5-carboxamide] | 148000 nM | – | 20400 nM | – | > 100000 nM | –
CS(=O)(=O)/C=C/[C@@H](NC(=O)c1cnc(C(F)(F)C(F)(F)F)nc1Oc1ccccc1)C1CC1 [Example 84, (S,E)-N-(1-cyclopropyl-3-(methylsulfonyl)allyl)-2-(perfluoroethyl)-4-phenoxypyrimidine-5-carboxamide] | 80 nM | 51.1 nM | 16 nM | 8780 nM | 200 nM | –
CS(=O)(=O)/C=C/[C@@H](NC(=O)c1cnc(C2(F)CC2)nc1Oc1ccccc1)C1CC1 [Example 100, (S,E)-N-(1-cyclopropyl-3-(methylsulfonyl)allyl)-2-(1-fluorocyclopropyl)-4-phenoxypyrimidine-5-carboxamide] | 174 nM | 66 nM | 150 nM | 24400 nM | 853 nM | –
CS(=O)(=O)/C=C/[C@@H](NC(=O)c1cnc(C2(C(F)(F)F)CC2)nc1Oc1ccccc1)C1CC1 [Example 102, (S,E)-N-(1-cyclopropyl-3-(methylsulfonyl)allyl)-4-phenoxy-2-(1-(trifluoromethyl)cyclopropyl)pyrimidine-5-carboxamide] | 130 nM | 81.8 nM | 160 nM | 4140 nM | 530 nM | –
C[C@@H](/C=C/S(C)(=O)=O)NC(=O)c1cnc(C2CCCC2)nc1Oc1cc(F)cc(Cl)c1 [Example 122, (S,E)-4-(3-chloro-5-fluorophenoxy)-2-cyclopentyl-N-(4-(methylsulfonyl)but-3-en-2-yl)pyrimidine-5-carboxamide] | 22000 nM | – | 8070 nM | – | > 100000 nM | –
C[C@@H](/C=C/S(C)(=O)=O)NC(=O)c1cnc(C2CCCC2)nc1Oc1cc(Cl)cc(Cl)c1 [Example 123, (S,E)-2-cyclopentyl-4-(3,5-dichlorophenoxy)-N-(4-(methylsulfonyl)but-3-en-2-yl)pyrimidine-5-carboxamide] | 29000 nM | – | 20000 nM | – | > 100000 nM | –
CS(=O)(=O)/C=C/CNC(=O)c1cnc(N2CCCC2)nc1Oc1ccccc1 [Example 167, (E)-N-(3-(methylsulfonyl)allyl)-4-phenoxy-2-(pyrrolidin-1-yl)pyrimidine-5-carboxamide] | 15600 nM | – | 7080 nM | – | > 100000 nM | –
CS(=O)(=O)C=C1CN(C(=O)c2cnc(C3CC3)nc2Oc2ccccc2)C1 [Example 188, (2-cyclopropyl-4-phenoxypyrimidin-5-yl)(3-((methylsulfonyl)methylene)azetidin-1-yl)methanone] | – | 391 nM | 490 nM | > 15200 nM | – | 1100 nM
C[C@@H](/C=C/S(C)(=O)=O)NC(=O)c1cnc(C(C)(C)C)cc1Oc1ccccc1 [Example 253, (S,E)-6-(tert-butyl)-N-(4-(methylsulfonyl)but-3-en-2-yl)-4-phenoxynicotinamide] | 940 nM | 240 nM | 200 nM | > 10000 nM | – | –
C=C(C#N)CNC(=O)c1cnc(C(C)(F)F)nc1Oc1ccccc1 [Example 271, N-(2-cyanoallyl)-2-(1,1-difluoroethyl)-4-phenoxypyrimidine-5-carboxamide] | 986 nM | 397 nM | – | 12000 nM | 17400 nM | –
CCOc1cc(C2CCCC2)ccc1C(=O)NC/C=C/S(C)(=O)=O [Example 280, (E)-4-cyclopentyl-2-ethoxy-N-(3-(methylsulfonyl)allyl)benzamide] | 62000 nM | – | 21300 nM | – | 8490 nM | –
C[C@@H](/C=C/S(C)(=O)=O)NC(=O)c1ccc(C2CCCC2)cc1Oc1ccccc1 [Example 286, (S,E)-4-cyclopentyl-N-(4-(methylsulfonyl)but-3-en-2-yl)-2-phenoxybenzamide] | 1400 nM | 600 nM | – | > 10000 nM | 3580 nM | –

More lines, now with the values ahead:

IC50 [1, 4] | GI50 (HCT 116 cells) | IC50 (WRN C727 [2]) | GI50 (SW480 cells) | IC50 (WRN C727 [3]) | IC50 [1] | SMILES
439 nM | 214 nM | 200 nM | 11800 nM | 5000 nM | – | CC[C@@H](/C=C/S(C)(=O)=O)NC(=O)c1cnc(C2CCCC2)nc1Oc1ccccc1 [Example 6, (S,E)-2-cyclopentyl-N-(1-(methylsulfonyl)pent-1-en-3-yl)-4-phenoxypyrimidine-5-carboxamide]
7620 nM | 6300 nM | 5990 nM | > 10000 nM | 80000 nM | – | CS(=O)(=O)/C=C/CNC(=O)c1cnc(C2CC2)nc1Oc1ccccc1 [Example 17, (E)-2-cyclopropyl-N-(3-(methylsulfonyl)allyl)-4-phenoxypyrimidine-5-carboxamide]
1100 nM | 380 nM | 1530 nM | > 10000 nM | 6840 nM | – | C[C@@H](/C=C/S(C)(=O)=O)NC(=O)c1cnc(C2CC2)nc1Oc1ccccc1 [Example 18, (S,E)-2-cyclopropyl-N-(4-(methylsulfonyl)but-3-en-2-yl)-4-phenoxypyrimidine-5-carboxamide]
1010 nM | 171 nM | 290 nM | 18100 nM | 5000 nM | – | C[C@@H](/C=C/S(C)(=O)=O)NC(=O)c1cnc(CC2CC2)nc1Oc1ccccc1 [Example 35, (S,E)-2-(cyclopropylmethyl)-N-(4-(methylsulfonyl)but-3-en-2-yl)-4-phenoxypyrimidine-5-carboxamide]
910 nM | 270 nM | 260 nM | > 10000 nM | 1180 nM | – | C[C@@H](/C=C/S(C)(=O)=O)NC(=O)c1cnc(C2CCC2)nc1Oc1ccccc1 [Example 44, (S,E)-2-cyclobutyl-N-(4-(methylsulfonyl)but-3-en-2-yl)-4-phenoxypyrimidine-5-carboxamide]
57.7 nM | 23.5 nM | 16 nM | 8730 nM | 448 nM | – | CC(C)(C)c1ncc(C(=O)N[C@H](/C=C/S(C)(=O)=O)C2CC2)c(Oc2ccccc2)n1 [Example 58, (S,E)-2-(tert-butyl)-N-(1-cyclopropyl-3-(methylsulfonyl)allyl)-4-phenoxypyrimidine-5-carboxamide]
1500 nM | 430 nM | 1140 nM | > 5000 nM | 26000 nM | – | C[C@@H](/C=C/S(C)(=O)=O)NC(=O)c1cnc(C2CCCCC2)nc1Oc1ccccc1 [Example 77, (S,E)-2-cyclohexyl-N-(4-(methylsulfonyl)but-3-en-2-yl)-4-phenoxypyrimidine-5-carboxamide]
87000 nM | – | 50000 nM | – | > 100000 nM | – | CCc1cccc(Oc2nc(C3CCCC3)ncc2C(=O)N[C@@H](C)/C=C/S(C)(=O)=O)c1 [Example 108, (S,E)-2-cyclopentyl-4-(3-ethylphenoxy)-N-(4-(methylsulfonyl)but-3-en-2-yl)pyrimidine-5-carboxamide]
192000 nM | – | > 100000 nM | – | > 100000 nM | – | C[C@@H](/C=C/S(C)(=O)=O)NC(=O)c1cnc(C2CCCC2)nc1Oc1cccc2ccccc12 [Example 139, (S,E)-2-cyclopentyl-N-(4-(methylsulfonyl)but-3-en-2-yl)-4-(naphthalen-1-yloxy)pyrimidine-5-carboxamide]
